In ChEMBL document CHEMBL1143795, “Synthesis and antimalarial activity of new 1,12-bis(N,N'-acetamidinyl)dodecane derivatives” (Bioorg Med Chem Lett, 2007) one finds ED50 and IC50 data, which are given here for ten molecules.

Bounds are passed on as bounds.

The subject of assay [1] is Plasmodium vinckei petteri. Briefly: Antimalarial activity against Plasmodium vinckei petteri 279BY infected intraperitoneal dosed Swiss mice (Mus musculus). Type of assay: functional. The settings on record: ip.
For assay [2], the system named is Plasmodium vinckei petteri. Briefly: Antimalarial activity against Plasmodium vinckei petteri 279BY infected peroral dosed Swiss mice (Mus musculus). Type of assay: functional. The settings on record: po.
Assay [3] has as its system Plasmodium falciparum. Briefly: Antimalarial activity against Plasmodium falciparum Nigerian. Type of assay: functional, organism-based.
Assay [4] has as its system Plasmodium falciparum. In words: microbe, parasite or virus in culture. The settings on record: FCM29.
Description: Antimalarial activity against Plasmodium falciparum FCM29
Assay [5] has as its system Plasmodium falciparum. Briefly: microbe, parasite or virus in culture. The settings on record: W2.
Description: Antimalarial activity against Plasmodium falciparum W2

As to `C/C(=N\OS(C)(=O)=O)NCCCCCCCCCCCCN/C(C)=N/OS(C)(=O)=O`, the ED50 in assay [1] turned out to be 4.7 mg/kg; in assay [2] it was 42 mg/kg. The IC50 with Plasmodium falciparum [3] was 0.012 µM.

With `Cc1noc(=O)n1CCCCCCCCCCCCn1c(C)noc1=O`, the ED50 in assay [1] is above 9 mg/kg; in assay [2] it was 62 mg/kg. Also, it took 7.1 µM to reach half-maximal inhibition with Plasmodium falciparum [3] (IC50).

Take `CC(=O)O/N=C(\C)NCCCCCCCCCCCCN/C(C)=N/OC(C)=O`: the results for the ED50 in assay [1] and in assay [2] were 7.1 mg/kg and above 90 mg/kg, respectively. It took 1.8 µM to reach half-maximal inhibition in the assay on Plasmodium falciparum [3] (IC50).

As to `C/C(=N\OC(=O)c1ccccc1)NCCCCCCCCCCCCN/C(C)=N/OC(=O)c1ccccc1`, the figures for the ED50 in assay [1] and in assay [2] were above 9 mg/kg and above 90 mg/kg, respectively. The molecule further registered a concentration for half-maximal inhibition (IC50) in the assay on Plasmodium falciparum [3] of 0.0687 µM.

Take `CCNC(=O)O/N=C(\C)NCCCCCCCCCCCCN/C(C)=N/OC(=O)NCC`: the ED50 was above 10 mg/kg in assay [1] and above 90 mg/kg in assay [2]. In the assay with Plasmodium falciparum [3], half-maximal inhibition (IC50) was put at 0.093 µM.

Consider `C/C(=N\OC(=O)Nc1ccccc1)NCCCCCCCCCCCCN/C(C)=N/OC(=O)Nc1ccccc1`, for which the ED50 in assay [1] was 10 mg/kg; in assay [2], above 90 mg/kg. This molecule also had an IC50 in the assay with Plasmodium falciparum [3] of 0.135 µM.

For `CC(=N)NCCCCCCCCCCCCNC(C)=N`, the 50% effective dose (ED50) in assay [1] is 3.1 mg/kg; in assay [2], above 200 mg/kg. Moreover, the IC50 in the assay on Plasmodium falciparum [4] was 0.004 µM; in the assay with Plasmodium falciparum [5], 0.0081 µM.

`C/C(=N\O)NCCCCCCCCCCCCN/C(C)=N/O`: the ED50 in assay [1] was found to be 9.2 mg/kg; in assay [2] it was 90 mg/kg. In the assay with Plasmodium falciparum [3], this molecule returned an IC50 of 0.31 µM.

Turning to `CCOP(=O)(OCC)O/N=C(\C)NCCCCCCCCCCCCN/C(C)=N/OP(=O)(OCC)OCC`, the 50% effective dose (ED50) in assay [1] is above 9 mg/kg; in assay [2], above 90 mg/kg. Moreover, in the assay with Plasmodium falciparum [3], the IC50 came out at 0.0096 µM.

Regarding `CO/N=C(\C)NCCCCCCCCCCCCN/C(C)=N/OC`, the values for the 50% effective dose (ED50) in assay [1] and in assay [2] were above 10 mg/kg and 110 mg/kg, respectively. Moreover, the 50% inhibitory concentration (IC50) in the assay on Plasmodium falciparum [3] is 4.35 µM.
